We go through eight compounds from patent US8703791B2, “3-carboxypropyl-aminotetralin derivatives and related compounds as mu opioid receptor antagonists” (Theravance, Inc., priority 2007, dated 2014).

Where two headings read alike, the source gives them in different places.

In experiment [1] the test system is loperamide-induced delayed gastric emptying. The experiment can be described thus: Rat gastric emptying assay, reversal of loperamide-induced delayed gastric emptying. In kind it is in vivo. Particulars: administered orally, loperamide 1 mg/kg subcutaneous.
The target of experiment [2] is T1, human mu opioid receptor (Homo sapiens, UniProt P35372). The experiment can be described thus: Human mu [35S]GTPγS nucleotide exchange assay in membranes from CHO-K1 cells. It counts as biochemical. Particulars: read-out: intrinsic activity (IA), bound [35S]GTPγS relative to DAMGO (IA=100).
Experiment [3] deals with T1, human mu opioid receptor. The experiment can be described thus: Radioligand binding assay, [3H]-Diprenorphine displacement, human mu opioid receptor.
The mark [4] stands for this setting: expressed as a percentage of activation by DAMGO.

T1 sequence (P35372 whole entry): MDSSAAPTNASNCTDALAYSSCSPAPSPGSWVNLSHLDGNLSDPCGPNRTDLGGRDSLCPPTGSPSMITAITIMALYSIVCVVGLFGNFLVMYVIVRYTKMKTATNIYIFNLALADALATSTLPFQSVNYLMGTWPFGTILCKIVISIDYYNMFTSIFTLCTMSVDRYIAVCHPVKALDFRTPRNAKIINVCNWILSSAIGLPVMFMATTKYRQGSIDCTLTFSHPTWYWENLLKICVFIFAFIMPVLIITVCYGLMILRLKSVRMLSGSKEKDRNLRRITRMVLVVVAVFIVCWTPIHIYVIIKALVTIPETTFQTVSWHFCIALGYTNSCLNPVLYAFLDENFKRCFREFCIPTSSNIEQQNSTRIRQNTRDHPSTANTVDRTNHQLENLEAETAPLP

As for `CCC1(CC)c2cc(C(N)=O)ccc2C[C@H](OC)[C@H]1NCC[C@H](CC1CCCCC1)C(=O)O` [Example 1, (S)-4-((2S,3S)-7-Carbamoyl-1,1-diethyl-3-methoxy-1,2,3,4-tetrahydro-naphthalen-2-ylamino)-2-cyclohexylmethyl-butyric acid], the “ID50, dose required for 50% reversal of the effects of loperamide” value (“ID50, dose required for 50% reversal” for short) in experiment [1] stood at 0.09 mg/kg.

As for `CCC1(CC)c2cc(C(N)=O)ccc2C[C@H](OC)[C@H]1NCC[C@H](CC1CCCCC1)C(=O)OC` [Example 2, (S)-4-((2S,3S)-7-Carbamoyl-1,1-diethyl-3-methoxy-1,2,3,4-tetrahydro-naphthalen-2-ylamino)-2-cyclohexylmethyl-butyric acid methyl ester], at human mu opioid receptor [2] (setting [4]), the Emax was -5%.

Turning to `CCC1(CC)c2cc(C(N)=O)ccc2C[C@H](OC)[C@H]1NCC[C@H](CC(C)C)C(=O)OC` [Example 7-A, (S)-2-[2-((2S,3S)-7-Carbamoyl-1,1-diethyl-3-methoxy-1,2,3,4-tetrahydro-naphthalen-2-ylamino)-ethyl]-4-methyl-pentanoic acid methyl ester], the Emax on human mu opioid receptor [2] came out at 8%.

The compound `CCC1(CC)c2cc(C(N)=O)ccc2C[C@H](OC)[C@H]1NCC[C@@H](CC1CCCCC1)C(=O)O` [Example 10-G, (R)-4-((2S,3S)-7-Carbamoyl-1,1-diethyl-3-methoxy-1,2,3,4-tetrahydro-naphthalen-2-ylamino)-2-cyclohexylmethyl-butyric acid] showed a Ki on human mu opioid receptor [3] of 0.251 nM. Further, the Emax on human mu opioid receptor [2] came to 7%. In addition, the “ID50, dose required for 50% reversal” value in experiment [1] stood at 0.12 mg/kg.

Consider `CCC1(CC)c2cc(C(N)=O)ccc2C[C@@H](OC)[C@@H]1NCC[C@@H](CC1CCCCC1)C(=O)OC` [Example 5, (R)-4-((2R,3R)-7-Carbamoyl-1,1-diethyl-3-methoxy-1,2,3,4-tetrahydro-naphthalen-2-ylamino)-2-cyclohexylmethyl-butyric acid methyl ester], for which the Emax at human mu opioid receptor [2] (setting [4]) stood at 17%.

`CCC1(CC)c2cc(O)ccc2C[C@H](OC)[C@H]1NCC[C@H](CC1CCCCC1)C(=O)O` [Example 12, (S)-2-Cyclohexylmethyl-4-((2S,3S)-1,1-diethyl-7-hydroxy-3-methoxy-1,2,3,4-tetrahydro-naphthalen-2-ylamino)-butyric acid] showed a Ki at human mu opioid receptor [3] of 0.2 nM. Besides, the Emax at human mu opioid receptor [2] is -5%. Moreover, in experiment [1], the “ID50, dose required for 50% reversal” value is on record as 0.05 mg/kg.

With `CCC1(CC)c2cc(C(N)=O)ccc2CC(OC)[C@H]1NCC[C@@H](CC1CCCCC1)C(=O)OC` (mixture of isomers) [Example 6, (R)-4-((2S,3SR)-7-Carbamoyl-1,1-diethyl-3-methoxy-1,2,3,4-tetrahydro-naphthalen-2-ylamino)-2-cyclohexylmethyl-butyric acid methyl ester], the Emax at human mu opioid receptor [2] (setting [4]) came out at 19%.

Take `CCCCC[C@@H](CCN[C@@H]1[C@@H](OC)Cc2ccc(C(N)=O)cc2C1(CC)CC)C(=O)O` [Example 9, (S)-2-[2-((2S,3S)-7-Carbamoyl-1,1-diethyl-3-methoxy-1,2,3,4-tetrahydro-naphthalen-2-ylamino)-ethyl]-heptanoic acid]: on human mu opioid receptor [3] ([3H]-Diprenorphine 0.5 nM, CHO-K1 membranes, read-out: pKi at the human mu opioid receptor (converted)), the Ki was 0.631 nM. Moreover, on human mu opioid receptor [2] (setting [4]), the Emax is -2%. Besides, the “ID50, dose required for 50% reversal” value in experiment [1] is recorded as 0.10 mg/kg.
